Reference: patent US20220009914A1, “Analogs of Nitrofuran Antibiotics to Combat Resistance” (The Trustees of Indiana University, priority 2020, published 2022)
Read-outs that look alike come from different tables or passages of the source.

Tests used:
native MDH = biological target: T1, native MDH (Sus scrofa, UniProt P00346); assay: native MDH enzymatic activity counter-screen; assay type: biochemical, pig; settings: without NfsB nitroreductase; compounds added after refolding; read-out: Native MDH Activity IC50
T1 sequence (P00346 25-338): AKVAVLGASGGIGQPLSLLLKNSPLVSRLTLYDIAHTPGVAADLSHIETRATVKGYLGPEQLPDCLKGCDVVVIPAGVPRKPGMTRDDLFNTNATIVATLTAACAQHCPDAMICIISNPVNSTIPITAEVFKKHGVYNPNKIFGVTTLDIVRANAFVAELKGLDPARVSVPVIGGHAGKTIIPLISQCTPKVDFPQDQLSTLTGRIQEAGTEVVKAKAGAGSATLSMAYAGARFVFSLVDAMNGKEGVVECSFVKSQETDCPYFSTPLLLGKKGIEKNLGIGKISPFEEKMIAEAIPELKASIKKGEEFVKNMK
Procedure: Reagent Preparations & Assay Protocol: This assay was performed as described above for the GroEL/ES-dMDH refolding assay; however, the assay protocol differed in the sequence of compound addition to the assay plates. The refolding reactions were allowed to proceed for 45 min at 37° C. in the absence of test compounds (complete refolding of MDH occurs), then quenched with the EDTA stock. Compounds were then pin-transferred into the plates after the EDTA quenching step; thus, compound effects are only possible by inhibiting the fully-refolded MDH reporter substrate. […] A340 nm measurements were recorded at 0.5 minutes (start point) and at successive time points until the amount of NADH consumed reached ˜90% (end point, generally between 20-35 minutes). Compounds were tested in 8-point, 3-fold dilution series (62.5 μM to 29 nM during the reporter reaction) in clear, flat-bottom 384-well microtiter plates. IC50 values for the MDH reporter enzyme were determined as described above. Results presented represent the averages of IC50 values obtained from at least five replicates.
Evaluating analogs for inhibiting GroEL/ES-mediated substrate refolding functions. […] We first evaluated all test compounds in our standard GroEL/ES-mediated refolding assays that employ either malate dehydrogenase (MDH) or rhodanese (Rho) as the denatured substrate reporter enzymes. When denatured, these enzymes are efficiently folded by GroEL/ES in the absence of inhibitors, and thus act as reporters to determine the degree of inhibition against the bacterial chaperonin system. Inhibition was examined in the presence of these two orthogonal substrates in order to support that GroEL/ES inhibitors were on-target. To further support on-target effects against GroEL/ES, we counter-screened for inhibition of the native MDH and Rho enzymatic reporter reactions, where test compounds were added after the denatured MDH and Rho substrate enzymes were completely refolded by GroEL/ES.

E. coli GroEL = biological target: T2, E. coli GroEL (Escherichia coli, UniProt P0A6F5); assay: GroEL-mediated ATPase assay; assay type: biochemical
T2 construct: made in house; host or cells: NEB 5-alpha E. coli
T2 sequence (P0A6F5 2-548): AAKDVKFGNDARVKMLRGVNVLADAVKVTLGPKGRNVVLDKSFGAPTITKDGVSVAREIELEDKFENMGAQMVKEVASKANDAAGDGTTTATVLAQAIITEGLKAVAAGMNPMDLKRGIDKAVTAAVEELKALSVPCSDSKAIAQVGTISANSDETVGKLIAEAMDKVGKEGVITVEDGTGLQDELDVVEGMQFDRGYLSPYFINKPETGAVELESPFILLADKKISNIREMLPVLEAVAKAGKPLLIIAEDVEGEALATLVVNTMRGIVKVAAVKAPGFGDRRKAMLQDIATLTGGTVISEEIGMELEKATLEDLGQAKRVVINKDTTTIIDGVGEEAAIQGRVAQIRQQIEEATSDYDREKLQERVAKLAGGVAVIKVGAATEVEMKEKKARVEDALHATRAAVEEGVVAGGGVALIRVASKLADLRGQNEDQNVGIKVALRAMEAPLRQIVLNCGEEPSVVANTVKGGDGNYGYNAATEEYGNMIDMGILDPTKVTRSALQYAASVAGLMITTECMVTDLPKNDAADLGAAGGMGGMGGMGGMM
Procedure: Evaluating compounds for inhibition in the GroEL-mediated ATPase assay. All compounds were evaluated for inhibiting E. coli GroEL-mediated ATPase activity as per our previously reported procedure although employing only GroEL in solution and not containing GroES or denatured MDH. Evaluating compounds for inhibition in the GroEL-mediated ATPase assay.
Reagent preparation: For this assay, four primary reagent solutions were prepared: 1) GroEL protein solution; 2) ATP initiation solution; 3) EDTA quench solution; 4) malachite green reporter solution. The GroEL protein solution consisted of 100 nM of GroEL in folding buffer (50 mM Tris-HCl, pH 7.4, 50 mM KCl, 10 mM MgCl2, and 1 mM DTT), which was prepared immediately prior to dispensing into the assay plates. For the ATP initiation solution, ATP solid was diluted into folding buffer to a final concentration of 2 mM. Quench solution contained 300 mM EDTA (pH 8.0). The malachite green reporter solution contained 0.034% w/v malachite green, 1.04% w/v ammonium molybdate, 1% Tween-20, and 1 M HCl dissolved in H2O.
Assay Protocol: First, 10 μL aliquots of the GroEL protein solution were dispensed into clear, flat-bottom 384-well polystyrene plates. […] After incubating for 45 minutes at 37° C., 10 μL of the EDTA quench solution was added to quench the reaction cycle. Then, 60 μL of the malachite green reporter solution was added and the plates were incubated at room temperature for 10 min. The absorbance of the malachite green-phosphate complex was measured at 600 nm using a Molecular Devices SpectraMax Plus384 microplate reader. A second set of baseline control plates were prepared analogously, but without GroEL protein solution, to correct for possible interference from compound absorbance or turbidity. […] Results presented represent the averages of IC50 values obtained from at least four replicates.
Evaluating analogs for inhibiting GroEL-mediated ATPase activity. […] Thus, we further tested analogs in a well-established GroEL ATPase assay that employed malachite green to monitor inorganic phosphate liberated as GroEL hydrolyzed ATP. Briefly, a solution of GroEL was incubated with test compounds (8-point, 3-fold dilution series) and the assay was initiated by addition of ATP. After incubating for 45 minutes, the ATPase reaction was quenched by the addition of EDTA. Malachite green was then added to the assay to bind and detect free phosphates in solution (absorbance detection at k=600 nm). If analogs inhibited ATPase activity, then there would be no free phosphates for malachite green to bind, leading to minimal absorbance at 600 nm.

[1] = GroEL only, no GroES or dMDH, read-out: GroEL ATPase IC50

| Compound | IC50 (native MDH) | IC50 (E. coli GroEL) | IC50 (E. coli GroEL; [1]) |
| --- | --- | --- | --- |
| O=C(N/N=C/c1ccc(O)c2ncccc12)c1ccc(NS(=O)(=O)c2cccs2)cc1 [Compound 13, N-(4-(2-((8-hydroxyquinolin-5-yl)methylene)hydrazine-1-carbonyl)phenyl)thiophene-2-sulfonamide] | > 63 µM | > 250 µM |  |
| O=C(N/N=C/c1ccc(O)c2ncccc12)c1cccc2ccccc12 [Compound 9, N′-((8-hydroxyquinolin-5-yl)methylene)-1-naphthohydrazide] | > 63 µM | > 250 µM |  |
| O=C(N/N=C/c1ccc([N+](=O)[O-])o1)c1ccccc1Oc1ccccc1 [Compound 23, N′-((5-nitrofuran-2-yl)methylene)-2-phenoxybenzohydrazide] | > 63 µM |  |  |
| COc1ccc(C(=O)N/N=C/c2ccccc2)cc1 [Compound 37, N′-benzylidene-4-methoxybenzohydrazide] | > 63 µM | > 250 µM |  |
| O=C(N/N=C/c1ccc(O)c2ncccc12)c1ccccc1 [Compound 5, N′-((8-hydroxyquinolin-5-yl)methylene)benzohydrazide] | > 63 µM | > 250 µM |  |
| O=C(N/N=C/c1ccc(O)c2ncccc12)c1cccc(Oc2ccccc2)c1 [Compound 11, N′-((8-hydroxyquinolin-5-yl)methylene)-3-phenoxybenzohydrazide] | > 63 µM | > 250 µM |  |
| O=Cc1ccc(O)c2ncccc12 [Compound 40, reference compound] | > 63 µM |  | > 250 µM |
| O=C(N/N=C/c1ccc([N+](=O)[O-])o1)c1ccc(NS(=O)(=O)c2cccs2)cc1 [Compound 26, N-(4-(2-((5-nitrofuran-2-yl)methylene)hydrazine-1-carbonyl)phenyl)thiophene-2-sulfonamide] | > 63 µM | > 250 µM |  |
| O=C(N/N=C/c1ccc(O)c2ncccc12)c1ccc(NS(=O)(=O)c2ccc(Br)cc2)cc1 [Compound 14, 4-bromo-N-(4-(2-((8-hydroxyquinolin-5-yl)methylene)hydrazine-1-carbonyl)phenyl)benzenesulfonamide] | > 63 µM | > 250 µM |  |
| COc1ccc(C(=O)N/N=C/c2ccc(O)c3ccccc23)cc1 [Compound 29, N′-((4-hydroxynaphthalen-1-yl)methylene)-4-methoxybenzohydrazide] | > 63 µM | > 250 µM |  |
| CCN(CC)S(=O)(=O)c1cccc(C(=O)N/N=C/c2ccc([N+](=O)[O-])o2)c1 [Compound 25, N,N-diethyl-3-(2-((5-nitrofuran-2-yl)methylene)hydrazine-1-carbonyl)benzenesulfonamide] | > 63 µM | > 250 µM |  |
| CCOc1ccc(S(=O)(=O)Nc2ccc(C(=O)N/N=C/c3ccc(O)c4ncccc34)cc2)cc1 [Compound 15, 4-ethoxy-N-(4-(2-((8-hydroxyquinolin-5-yl)methylene)hydrazine-1-carbonyl)phenyl)benzenesulfonamide] | > 63 µM | > 250 µM |  |
| COc1ccc(C(=O)N/N=C/c2ccc(O)c3ncccc23)cc1 [Compound 1, N′-((8-hydroxyquinolin-5-yl)methylene)-4-methoxybenzohydrazide] | > 63 µM | > 250 µM |  |
| O=C(N/N=C/c1ccc([N+](=O)[O-])o1)c1ccc(Cl)s1 [Compound 17, 5-chloro-N′-((5-nitrofuran-2-yl)methylene)thiophene-2-carbohydrazide] |  |  | > 250 µM |
| COc1ccc(C(=O)NN)cc1 [Compound 42, reference compound] | > 63 µM | > 250 µM |  |
| O=C(N/N=C/c1ccc(O)cc1)c1ccccc1 [Compound 36, N′-(4-hydroxybenzylidene)benzohydrazide] | > 63 µM | > 250 µM |  |
| CN(C)c1ccc(C(=O)N/N=C/c2ccc(O)c3ncccc23)cc1 [Compound 8, 4-(dimethylamino)-N′-((8-hydroxyquinolin-5-yl)methylene)benzohydrazide] | > 63 µM | > 250 µM |  |
| O=C(N/N=C/c1ccc(O)c2ncccc12)c1cccs1 [Compound 3, N′-((8-hydroxyquinolin-5-yl)methylene)thiophene-2-carbohydrazide] | > 63 µM | > 250 µM |  |
| COc1ccc(C(=O)N/N=C/c2ccc(O)cc2)cc1 [Compound 35, N′-(4-hydroxybenzylidene)-4-methoxybenzohydrazide] | > 63 µM | > 250 µM |  |
| O=C(N/N=C/c1ccc(O)c2ncccc12)c1ccncc1 [Compound 6, N′-((8-hydroxyquinolin-5-yl)methylene)isonicotinohydrazide] | > 63 µM | > 250 µM |  |
| CCOc1ccc(S(=O)(=O)Nc2ccc(C(=O)N/N=C/c3ccc([N+](=O)[O-])o3)cc2)cc1 [Compound 28, 4-ethoxy-N-(4-(2-((5-nitrofuran-2-yl)methylene)hydrazine-1-carbonyl)phenyl)benzenesulfonamide] | > 63 µM | > 250 µM |  |
| O=[N+]([O-])c1ccc(O)c2ncccc12 [Nitroxoline, reference compound] | > 63 µM | > 250 µM |  |
| O=C(N/N=C/c1cccc2ncccc12)c1ccccc1 [Compound 32, N′-(quinolin-5-ylmethylene)benzohydrazide] | > 63 µM | > 250 µM |  |
| O=C1CN(/N=C/c2ccc(O)c3ncccc23)C(=O)N1 [Compound 2, 1-(((8-hydroxyquinolin-5-yl)methylene)amino)imidazolidine-2,4-dione] | > 63 µM | > 250 µM |  |
| O=C(N/N=C/c1ccc([N+](=O)[O-])o1)c1cccs1 [Compound 16, N′-((5-nitrofuran-2-yl)methylene)thiophene-2-carbohydrazide] |  |  | > 250 µM |
| COc1ccc(C(=O)N/N=C/c2ccc([N+](=O)[O-])o2)cc1 [Compound 20, 4-methoxy-N′-((5-nitrofuran-2-yl)methylene)benzohydrazide] |  | > 250 µM |  |
| O=C1CN(/N=C/c2ccc([N+](=O)[O-])o2)C(=O)N1 [Nitrofurantoin, reference compound] |  | > 250 µM |  |
| CN(C)c1ccc(C(=O)N/N=C/c2ccc([N+](=O)[O-])o2)cc1 [Compound 21, 4-(dimethylamino)-N′-((5-nitrofuran-2-yl)methylene)benzohydrazide] |  | > 250 µM |  |
| O=C(N/N=C/c1ccc([N+](=O)[O-])o1)c1ccncc1 [Compound 19, N′-((5-nitrofuran-2-yl)methylene)isonicotinohydrazide] |  | > 250 µM |  |
| O=C(N/N=C/c1ccc([N+](=O)[O-])o1)c1ccccc1 [Compound 18, N′-((5-nitrofuran-2-yl)methylene)benzohydrazide] |  | > 250 µM |  |
